# According to PubChem BioAssay AID520 (NMMLSC, 2006):
# Activity calls are given as the source filed them. How the calls were made is not given here.
# Target: N-formyl peptide receptor 2 (Homo sapiens) (UniProt P25090)
# Experiment: concentration-dependent FPRL1 ligand displacement – cell-based, FPR counter-screen, fluorescent ligand, dose response (AID 520)
# Settings: FPRL1-expressing cells, fluorescent ligand binding inhibition; for Ki: measured here: FPRL1 binding Ki
# Sequence of N-formyl peptide receptor 2 (Homo sapiens) (P25090 whole entry, looked up): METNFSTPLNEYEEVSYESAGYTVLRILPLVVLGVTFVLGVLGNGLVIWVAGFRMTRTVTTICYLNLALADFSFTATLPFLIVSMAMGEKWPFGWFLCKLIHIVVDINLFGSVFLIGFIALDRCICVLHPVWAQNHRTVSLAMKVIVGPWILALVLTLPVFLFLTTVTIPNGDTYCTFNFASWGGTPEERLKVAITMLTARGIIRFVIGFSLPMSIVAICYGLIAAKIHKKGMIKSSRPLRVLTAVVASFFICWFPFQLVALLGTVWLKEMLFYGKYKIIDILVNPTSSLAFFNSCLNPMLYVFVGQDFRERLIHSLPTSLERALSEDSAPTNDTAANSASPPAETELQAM
Structure (SMILES),IC50,Ki
CCOc1cccc(/C(O)=C2/C(=O)C(=O)N(Cc3ccco3)C2c2ccncc2)c1 (stereo unspecified),> 66.7 µM (inactive),> 40.3 µM
Cc1ccc(NC(=O)c2oc3ccc(S(=O)(=O)N4CCOCC4)cc3c2C)cc1C,–,> 40.3 µM
O=C(NCc1cccnc1)C1c2ccccc2C(=O)N1C1CCCCCC1 (stereo unspecified),–,> 40.3 µM
CCOc1cc(C2C(C(=O)c3ccco3)=C(O)C(=O)N2CCc2ccccc2)ccc1O (stereo unspecified),> 66.7 µM (inactive),> 40.3 µM
CCOC(=O)c1c(-c2ccc(-c3ccccc3)cc2)csc1NC(=O)C1C2CCC(O2)C1C(=O)O (stereo unspecified),–,> 40.3 µM
CCC(SC1=Nc2ccccc2C2=NC(CC(C)C)C(=O)N12)C(=O)Nc1ccc2c(c1)OCO2 (stereo unspecified),–,> 40.3 µM
O=C1CCCC(O)=C1C(C#Cc1ccccc1)C1=C(O)CCCC1=O,> 66.7 µM (inactive),> 40.3 µM
Cc1ccsc1C1C2=C(CC(C)(C)CC2=O)Nc2ncnn21 (stereo unspecified),> 66.7 µM (inactive),> 40.3 µM
Cc1csc(NC(=O)CCn2c(=O)oc3ccccc32)n1,–,> 40.3 µM
CCOC(=O)Cc1cc(=O)n2[nH]c(C)c(-c3ccc(Cl)cc3)c2n1,–,> 40.3 µM
CCOC(=O)N1CCC(NC(=O)c2cc(C(=O)Nc3ccc(OC)c(OC)c3)ccc2CO)CC1,–,> 40.3 µM
C/C(=C1/SC(N2CCCC2)=NC1=O)c1ccc(Br)cc1,> 66.7 µM (inactive),> 40.3 µM
CCOc1ccccc1NC(=O)CSc1nccn1-c1ccccc1,–,> 40.3 µM
Cc1ccc(C)c(/C(O)=C2\C(=O)C(=O)N(CCCn3ccnc3)C2c2ccncc2)c1 (stereo unspecified),> 66.7 µM (inactive),> 40.3 µM
COc1cc(C2C(C(=O)c3ccc(C)o3)=C(O)C(=O)N2CCc2ccccc2)ccc1O (stereo unspecified),> 66.7 µM (inactive),> 40.3 µM
COC(=O)c1[nH]c(C)c(/C(O)=C2\C(=O)C(=O)N(CCN3CCOCC3)C2c2cccs2)c1C (stereo unspecified),> 66.7 µM (inactive),> 40.3 µM
COc1ccc(-c2nnc(Nc3nc4c(OC)cccc4s3)o2)cc1,–,> 40.3 µM
CCCc1cc(=O)n2[nH]c(C)c(-c3ccccc3)c2n1,–,> 40.3 µM
O=C(C1=C(O)C(=O)N(Cc2ccco2)C1c1ccccc1)c1cccs1 (stereo unspecified),> 66.7 µM (inactive),> 40.3 µM

Structure (SMILES),IC50,Ki
Cc1[nH]n2c(=O)c3c(nc2c1-c1cccc2ccccc12)CCC3,–,> 40.3 µM
COc1ccccc1-c1c(C)oc2cc(OC(=O)c3ccco3)ccc2c1=O,–,> 40.3 µM
Cc1[nH]n2c(=O)c3c(nc2c1-c1ccc(Cl)cc1)CCC3,–,> 40.3 µM
C=CCOc1ccc(C2C(C(=O)c3cccs3)=C(O)C(=O)N2c2nnc(C)s2)cc1 (stereo unspecified),> 66.7 µM (inactive),> 40.3 µM
CCOc1ccc(C2C(C(=O)c3ccco3)=C(O)C(=O)N2CCCn2ccnc2)cc1 (stereo unspecified),> 66.7 µM (inactive),> 40.3 µM
O=C(Nc1nnc(-c2ccccc2Cl)o1)c1ccc(S(=O)(=O)N2CCCCCC2)cc1,–,> 40.3 µM
COC(=O)C1(S(=O)(=O)c2cccc3nsnc23)CC1,–,> 40.3 µM
COc1ccc(-c2cn3cccnc3n2)cc1NC(=O)C1CCCC1,–,> 40.3 µM
CCOC(=O)c1c(NC(=O)C2C3CCC(O3)C2C(=O)O)sc(C)c1-c1ccc(C)cc1 (stereo unspecified),–,> 40.3 µM
COc1ccc(CN(C(=O)c2ccccc2OC)C2CCS(=O)(=O)C2)cc1 (stereo unspecified),–,> 40.3 µM
CC(C)(C)CC(=O)Nc1ccc(Nc2ccccc2)cc1,–,> 40.3 µM
CCC(NC(=O)Nc1cc(OC)c(OC)c(OC)c1)(C(F)(F)F)C(F)(F)F,–,> 40.3 µM
COc1ccc(-n2c(Cc3cccn3C)nnc2SCC(=O)Nc2ccc(Cl)cc2)cc1,–,> 40.3 µM
CCCCn1c(NC(=O)CC)c(C#N)c2nc3ccccc3nc21,–,> 40.3 µM
O=C(C1=C(O)C(=O)N(CCCN2CCOCC2)C1c1ccccn1)c1cc2ccccc2o1 (stereo unspecified),> 66.7 µM (inactive),> 40.3 µM
Cc1ccc(F)c(NC(=O)C2CCCCC2C(=O)O)c1 (stereo unspecified),–,> 40.3 µM
COc1ccccc1Oc1c(C)oc2c(CN(C)C)c(O)ccc2c1=O,–,> 40.3 µM
CC1=C(C#N)C(c2ccc3ncccc3c2)C(C#N)=C(C)N1,> 66.7 µM (inactive),> 40.3 µM
COc1ccc(NC(=O)C(c2ccc(C)cc2)N(C)C(=O)c2cnccn2)cc1 (stereo unspecified),–,> 40.3 µM
